Source: ChEMBL document CHEMBL6074662, “Antibacterial, Antibiofilm, and Anti-inflammatory Effects of a Novel Thrombin-Derived Peptide in Sepsis Models: Insights into Underlying Mechanisms” (J Med Chem, 2024)
Activity calls are given as the source filed them. The rule behind the calls is not given here.

What was measured:
Staphylococcus aureus [1] = assay: Synergistic bactericidal activity against methicillin-resistant Staphylococcus aureus CCARM 3089 at 0.5 to 2 uM incubated for 12 hrs in presence of oxacillin by time-kill assay; format: functional, organism-based; conditions: dose 0.5-2 µM
Escherichia coli = assay: Antibacterial activity against Escherichia coli KCTC 1682 assessed as zone of clearance incubated for 4 hrs in presence of trypsin by radical diffusion assay; format: functional, organism-based
Staphylococcus aureus [2] = assay: Bactericidal activity against methicillin-resistant Staphylococcus aureus CCARM 3089 at 0.5 to 2 uM incubated for 12 hrs by time-kill assay; format: functional, organism-based; conditions: dose 0.5-2 µM
Mus musculus [3] = assay: Antiseptic activity in sepsis shock ICR mouse model infected with carbapenem-resistant Acinetobacter baumannii assessed as reduction in bacterial count in lungs at 1 mg/kg, ip pretreated with compound for 1 hr followed by bacterial infection measured after 16 hrs relative to control; format: functional; design: scale not given: the % may be the effect or the level left; conditions: time 17 hrs
Mus musculus [4] = assay: Antiseptic activity in sepsis shock ICR mouse model infected with carbapenem-resistant Acinetobacter baumannii assessed as decrease in BUN level in serum at 1 mg/kg, ip pretreated with compound for 1 hr followed by bacterial infection measured after 16 hrs relative to control; format: functional; design: scale not given: the % may be the effect or the level left; conditions: time 17 hrs
RAW264.7 [5] = assay: Inhibition of cell binding activity of FITC-labeled LPS to surface receptors of mouse RAW264.7 cells at 8 uM incubated for 1 hr by flow cytometry; format: cell-based
Homo sapiens = species on record: Homo sapiens; assay: Binding affinity to CM5 chip-immobilized TLR4/MD2 (unknown origin) complex by SPR analysis
Mus musculus [6] = assay: Antiseptic activity in sepsis shock ICR mouse model infected with carbapenem-resistant Acinetobacter baumannii assessed as reduction in bacterial count in liver at 1 mg/kg, ip pretreated with compound for 3 hrs followed by bacterial infection measured after 16 hrs relative to control; format: functional; design: scale not given: the % may be the effect or the level left; conditions: time 19 hrs
[7] = Effect on secondary structure of drug in TFE assessed as formation of left-handed alpha-helical conformation at 150 uM by CD analysis; format: physicochemical
Lipopolysaccharide (LPS) = assay: Displacement of BODIPY-TR-cadaverine from cell-free LPS (unknown origin) at 8 uM incubated for 30 mins by fluorescence based assay relative to control
Mus musculus [8] = assay: Antiseptic activity in sepsis shock ICR mouse model infected with carbapenem-resistant Acinetobacter baumannii assessed as decrease in IL-1beta level in serum at 1 mg/kg, ip pretreated with compound for 1 hr followed by bacterial infection measured after 16 hrs relative to control; format: functional; design: scale not given: the % may be the effect or the level left; conditions: time 17 hrs
Acinetobacter baumannii [9] = assay: Antibacterial activity against carbapenem-resistant Acinetobacter baumannii-induced sepsis shock in ICR mouse model assessed as bacterial growth inhibition in liver at 1 mg/kg, ip pretreated with compound for 1 hr followed by bacterial infection measured after 16 hrs relative to control; format: functional; conditions: time 17 hrs
Acinetobacter baumannii [10] = assay: Antibacterial activity against carbapenem-resistant Acinetobacter baumannii-induced sepsis shock in ICR mouse model assessed as bacterial growth inhibition in lung at 1 mg/kg, ip pretreated with compound for 1 hr followed by bacterial infection measured after 16 hrs relative to control; format: functional; conditions: time 17 hrs
Mus musculus [11] = assay: (§1) Antiseptic activity in sepsis shock ICR mouse model infected with carbapenem-resistant Acinetobacter baumannii assessed as reduction in bacterial count in lungs at 1 mg/kg, ip pre-infected with bacteria followed by compound administration 1 hr post-infection measured after 16 hrs relative to control; format: functional; design: scale not given: the % may be the effect or the level left
Acinetobacter baumannii [12] = assay: Antibacterial activity against carbapenem-resistant Acinetobacter baumannii 1707 incubated for 24 hrs by CLSI based broth microdilution method; format: functional, organism-based
RAW264.7 [13] = assay: Displacement of FITC-labeled LPS pre-bound to surface receptors of mouse RAW264.7 cells incubated for 1 hr by flow cytometry; format: cell-based
[14] = Effect on secondary structure of drug in LPS assessed as formation of left-handed alpha-helical conformation at 150 uM by CD analysis; format: physicochemical
Mus musculus [15] = assay: as §1, with “kidney” for “lungs”; format: functional; design: scale not given: the % may be the effect or the level left
RAW264.7 [16] = assay: Anti-inflammatory activity in mouse RAW264.7 cells assessed as decrease in LPS-induced NO production upto 10 uM pretreated for 1 hr followed by LPS treatment for 16 hrs by Griess assay; format: functional, cell-based; conditions: time 17.0 hrs
Mus musculus [17] = assay: Antiseptic activity in sepsis shock ICR mouse model infected with carbapenem-resistant Acinetobacter baumannii assessed as reduction in bacterial count in liver at 1 mg/kg, ip pre-infected with bacteria followed by compound administration 1 hr post-infection measured after 16 hrs relative to control; format: functional; design: scale not given: the % may be the effect or the level left
[18] = Effect on secondary structure of drug in SDS assessed as formation of left-handed alpha-helical conformation at 150 uM by CD analysis; format: physicochemical

With H-GVFRLKKWIKKVIKKWGK-NH2 the Activity (Staphylococcus aureus [1]) was “Active”, the Activity (Escherichia coli) was “inactive” and the Activity (Staphylococcus aureus [2]) was “inactive”.

With H-GVFRLKKWLKKVKKWGK-NH2 the Activity (Mus musculus [3]) was 99%, the Activity (Mus musculus [4]) was 56.7% and the inhibition (RAW264.7 [5]) was “Active; Activity Comparable To Ll-37 And Pmb”. For the same substance, the Activity (Homo sapiens) was 9.4 10^-7M, the Activity (Mus musculus [6]) was 99.4% and the Activity [7] was “Active”. The Activity (Lipopolysaccharide (LPS)) was 56%, the Activity (Mus musculus [8]) was 68.7% and the inhibition in vivo at 1 mg/kg (Acinetobacter baumannii [9]) was 95.7%. The inhibition in vivo at 1 mg/kg (Acinetobacter baumannii [10]) was 96.5%, the Activity (Mus musculus [11]) was 92.3% and the Activity (Acinetobacter baumannii [12]) was “Active”. The Activity (RAW264.7 [13]) was “Active; Activity Similar To Ll-37”, the Activity [14] was “Active” and the Activity (Mus musculus [15]) was 96.7%. The Activity (RAW264.7 [16]) was “Active”, the Activity (Mus musculus [17]) was 97.7% and the Activity [18] was “Active”.
